In patent US5817756A, “Pseudo- and non-peptide bradykinin receptor antagonists” (Scios Inc., priority 1995, dated 1998):
Starred links: 1 amine or outer side, 2 acyl side, 3 side chain; linkers in the order of their positions; H or OH if unused. Non-standard residues stand in square brackets, D forms with d. Residues, ends and D or L forms follow the SMILES beside them. X3 = O=C(Cn1c(=O)n(C2CCN([*:1])CC2)c2ccccc21)[*:2]; X7 = O=C(Cn1c(=O)c2ccccc2c2ccc(N[*:1])cc21)[*:2]; Butenoyl(2E,4-amino) = O=C(/C=C/CN[*:1])[*:2]; X4 = O=C(Cn1c2c(c3ccccc31)CN([*:1])CC2)[*:2]; Oic = O=C(O)[C@@H]1C[C@@H]2CCCC[C@@H]2N1; X1 = O=C(C/C=C/c1ccccc1CN[*:1])[*:2]; X6 = O=C(/C=C/c1ccccc1CCN[*:1])[*:2]; X2 = O=C(/C=C/c1ccccc1CN[*:1])[*:2]; dTic = O=C(O)[C@H]1Cc2ccccc2CN1; 12Ado = NCCCCCCCCCCCC(=O)O; Nphe = O=C(O)CNCc1ccccc1; Ahx = NCCCCCC(=O)O

Target: T1, human bradykinin B2 receptor (Homo sapiens, UniProt P30411)
T1 construct: The HindIII/XbaI fragment of one full-length clone, 126A, was inserted into pcDNAI neo vector; expressed in transfected cells
T1 sequence (P30411 1-391): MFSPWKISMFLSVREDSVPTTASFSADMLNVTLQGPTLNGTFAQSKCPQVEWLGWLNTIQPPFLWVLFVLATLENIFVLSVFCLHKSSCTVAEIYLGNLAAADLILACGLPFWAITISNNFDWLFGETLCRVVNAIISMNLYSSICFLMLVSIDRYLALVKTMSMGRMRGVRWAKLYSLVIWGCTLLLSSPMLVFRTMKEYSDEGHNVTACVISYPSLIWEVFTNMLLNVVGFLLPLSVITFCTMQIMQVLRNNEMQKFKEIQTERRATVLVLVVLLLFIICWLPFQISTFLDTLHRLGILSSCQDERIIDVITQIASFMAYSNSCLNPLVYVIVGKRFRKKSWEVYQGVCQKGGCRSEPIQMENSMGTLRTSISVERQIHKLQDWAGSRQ
Experiment: Radioligand binding, H2O.2 cell membranes, 3H-bradykinin
Conditions: Table 1, read-out: Radioligand Binding Human 3HBK
Protocol: (§1) A human bradykinin B2 receptor was expressed in CHO/K cells. Briefly, approximately 2×10^6 plaques from a human uterus λgt10 cDNA library (Clontech Laboratories; Palo Alto, Calif.) were screened using a PCR fragment containing the coding region of the rat B2 receptor. This probe was generated by random-primed synthesis in the presence of α[^32 P]dATP. Duplicate filters were hybridized overnight at 42° C. in 1M NaCl, 50 mM Tris pH 7.5, 5× Denhardt's, 200 μg/ml salmon sperm DNA, 1% SDS, and 20% formamide. The filters were washed at 65° C. in 1× SSC and 1% SDS. Coincident positively hybridizing plaques were purified and rescreened with the same probe and stringency conditions. EcoRI fragments of positive clones were inserted into Bluescript/KS II+vector (Stratagene; La Jolla, Calif.) for sequence determination.
(§2) The nucleotide sequence of the cloned human B2 receptors was determined using double-stranded DNA and the dideoxy chain termination method. Commercially available T3 and T7 oligonucleotides (USB; Cleveland, Ohio) and synthetic 21-mer oligonucleotides (DNA/RNA Synthesizer; applied Biosystems Inc.; Palo Alto, Calif.) from both the known rat sequence and the determined human sequence were used to identify the nucleotide sequence from the 5' untranslated end to the BglII site in the 3' untranslated end of the clone.
(§3) CHO/K cells were plated in 2 ml of growth medium (Ham's F12 with 10% FBS) per 6 well plate and incubated at 37° C., 5% CO2 until they were 60% confluent. For each well, 4, 12, and 16 μg of DNA was diluted in 100 μl Opti-MEM I reduced serum medium (Gibco/BRL; Gaithersburg, Md.). 12 μl of TransfectASE reagent (Gibco/BRL) was diluted in a separate aliquot of 100 μl Opti-MEM I. The DNA and TransfecASE solutions were combined, mixed gently, and incubated at 25° C. for 15 minutes. This solution was then diluted to 1 ml with Opti-MEM I. Each well was washed twice with Opti-MEM I and 1 ml of the DNA/TransfectAse complex was added to each well. After a 5 hour incubation at 37° C. and 5% CO2, 1 ml of Ham's F12 with 20% FBS was added to each well and cells were incubated overnight. Media was replaced with growth medium and incubated for additional 24 hours.
(§4) This assay measures the ability of a bradykinin antagonist compound to compete for binding to the human B2 receptor with tritiated bradykinin or tritiated NPC17731, a bradykinin analog which is known to bind the B2 receptor and act as a bradykinin antagonist.
(§5) H2O.2 cells were grown to confluency in Ham's F12 media containing 10% FBS and 500 μg/ml Geneticin. Growth media was aspirated and the monolayer washed once with Dulbecco's PBS without Ca^++ and Mg^++. Cells were scraped in Dulbecco's PBS and centrifuged at 2,000×g for 10 minutes. Pellets were resuspended in 25 mM TES, 1 mM 1,10-phenanthroline pH 6.8 buffer and homogenized using a Ploytron at setting 5 for 10 seconds. An aliquot was taken for a protein determination using a BioRad protein assay kit. Membranes were centrifuged at 48,000×g for 10 minutes at 4° C. Pellets were resuspended in the TES buffer with 0.1% BSA and 0.014% bacitracin. 0.5 ml aliquots were frozen in liquid N2 and stored at -80° C. for up to 2 weeks.
(§6) Membranes from H2O.2 cells previously prepared were thawed at 37° C. and diluted in 25 mM TES, […] 1,10-phenanthroline pH 6.8 containing BSA and bactiracin. […] Non-specific binding was determined with 1 μM bradykinin. The tubes were incubated 90 minutes at 25° C. and the assay was terminated by rapid vacuum filtration onto Whatman GF/B filters presoaked with 0.2% PEI for 3 hours followed by 2×3 ml aliquots of ice-cold 50 mM Tris, pH 7.4. Radioactivity was counted with a Beckman scintillation counter.

| Compound | Ki [nM] |
| --- | --- |
| N=C(N)NCCC[C@@H](N)C(=O)N[C@@H](CCCNC(=N)N)C(=O)NCc1ccccc1/C=C/CC(=O)N[C@@H](CO)C(=O)N1Cc2ccccc2C[C@@H]1C(=O)N1[C@H](C(=O)N[C@@H](CCCNC(=N)N)C(=O)O)C[C@@H]2CCCC[C@@H]21 (H-[dR]R[X1]S[dTic][Oic]R-OH) | 51 |

Same assay, conditions: Table 2, read-out: Radioligand Binding, Ki Human 3HBK

| Compound | Ki [nM] |
| --- | --- |
| N=C(N)NCCC[C@@H](N)C(=O)N[C@@H](CCCNC(=N)N)C(=O)N1CCc2c(n(CCC(=O)N3CCC4(CC3)C(=O)N(CC(=O)N[C@@H](CCCNC(=N)N)C(=O)O)CN4c3ccccc3)c3ccccc23)C1 [Compound 3] | 570 |
| N=C(N)NCCC[C@@H](N)C(=O)N[C@@H](CCCNC(=N)N)C(=O)N1CCC2(CC1)C(=O)N(CC(=O)N1CCc3c(n(CC(=O)N[C@@H](CCCNC(=N)N)C(=O)O)c4ccccc34)C1)CN2C1CCCCC1 [Compound 4] | 1400 |
| N=C(N)NCCC[C@@H](N)C(=O)N[C@@H](CCCNC(=N)N)C(=O)N1CCC2(CC1)C(=O)N(CC(=O)N1CCc3c(c4ccccc4n3CC(=O)N[C@@H](CCCNC(=N)N)C(=O)O)C1)CN2c1ccccc1 [Compound 7] | 325 |
| N=C(N)NCCC[C@@H](N)C(=O)N[C@@H](CCCNC(=N)N)C(=O)N1CCC2(CC1)C(=O)N(CC(=O)N1CCc3c(n(CCC(=O)N[C@@H](CCCNC(=N)N)C(=O)O)c4ccccc34)C1)CN2c1ccccc1 [Compound 8] | 223 |
| COc1ccc(N2CN(CC(=O)N3CCc4c(c5ccccc5n4CC(=O)N[C@@H](CCCNC(=N)N)C(=O)O)C3)C(=O)C23CCN(C(=O)[C@H](CCCNC(=N)N)NC(=O)[C@H](N)CCCNC(=N)N)CC3)cc1 [Compound 9] | 129 |
| N=C(N)NCCC[C@@H](N)C(=O)N[C@@H](CCCNC(=N)N)C(=O)N1CCC2(CC1)C(=O)N(CC(=O)N1CCc3c(c4ccccc4n3CC(=O)N[C@@H](CCCNC(=N)N)C(=O)O)C1)CN2C1CCCCC1 [Compound 10] | 229 |
| CCCN1CN(CC(=O)N2CCc3c(c4ccccc4n3CC(=O)N[C@@H](CCCNC(=N)N)C(=O)O)C2)C(=O)C12CCN(C(=O)[C@H](CCCNC(=N)N)NC(=O)[C@H](N)CCCNC(=N)N)CC2 [Compound 11] | 473 |
| N=C(N)NCCC[C@@H](N)C(=O)N[C@@H](CCCNC(=N)N)C(=O)N1CCC2(CC1)C(=O)N(CC(=O)N1CCc3c(c4ccccc4n3CC(=O)N[C@@H](CCCNC(=N)N)C(=O)O)C1)CN2CC1CCCCC1 [Compound 12] | 168 |
| Cc1cc(C)nc(NCCC[C@@H](NC(=O)Cn2c3c(c4ccccc42)CCN(C(=O)CN2CN(c4ccccc4)C4(CCN(C(=O)[C@H](CCCNC(=N)N)NC(=O)[C@H](N)CCCNC(=N)N)CC4)C2=O)C3)C(N)=O)n1 [Compound 14] | 78.4 |
| Cc1cc(C)nc(NCCC[C@@H](NC(=O)Cn2c3c(c4ccccc42)CCN(C(=O)CN2CN(c4ccccc4)C4(CCN(C(=O)[C@@H](N)CCCNC(=N)N)CC4)C2=O)C3)C(N)=O)n1 [Compound 15] | 285 |
| Cc1cc(C)nc(NCCC[C@@H](NC(=O)Cn2c3c(c4ccccc42)CCN(C(=O)CN2CN(c4ccccc4)C4(CCN(C(=O)[C@H](N)CCCNC(=N)N)CC4)C2=O)C3)C(N)=O)n1 [Compound 16] | 212 |
| Cc1cc(C)nc(NCCC[C@@H](NC(=O)Cn2c3c(c4ccccc42)CN(C(=O)CN2CN(CC4CCCCC4)C4(CCN(C(=O)[C@H](CCCNC(=N)N)NC(=O)[C@H](N)CCCNC(=N)N)CC4)C2=O)CC3)C(N)=O)n1 [Compound 20] | 52 |

Target: T1, human bradykinin B2 receptor
Experiment: Radioligand binding, H2O.2 cell membranes, 3H-NPC17731
Conditions: not given
Protocol: as §1, §2, §3, §4, §5, §6

| Compound | Ki [nM] |
| --- | --- |
| N=C(N)NCCC[C@@H](N)C(=O)N[C@@H](CCCNC(=N)N)C(=O)N1CCC2(CC1)C(=O)N(CC(=O)N[C@@H](CO)C(=O)N1Cc3ccccc3C[C@@H]1C(=O)N1[C@H](C(=O)N[C@@H](CCCNC(=N)N)C(=O)O)C[C@@H]3CCCC[C@@H]31)CN2c1ccccc1 [drawing 59] | 7.8 |

Same assay, conditions: Table 1; 3H-NPC17731; read-out: Radioligand Binding Human 3H17731

| Compound | Ki [nM] |
| --- | --- |
| N=C(N)NCCC[C@@H](N)C(=O)N[C@@H](CCCNC(=N)N)C(=O)NCCCCCCCCCCCC(=O)N[C@@H](CO)C(=O)N1Cc2ccccc2C[C@@H]1C(=O)N1[C@H](C(=O)N[C@@H](CCCNC(=N)N)C(=O)O)C[C@@H]2CCCC[C@@H]21 (H-[dR]R[12Ado]S[dTic][Oic]R-OH) | 31 |
| N=C(N)NCCC[C@@H](N)C(=O)N[C@@H](CCCNC(=N)N)C(=O)NCCCCCC(=O)N[C@@H](CO)C(=O)N1Cc2ccccc2C[C@@H]1C(=O)N1[C@H](C(=O)N[C@@H](CCCNC(=N)N)C(=O)O)C[C@@H]2CCCC[C@@H]21 (H-[dR]R[Ahx]S[dTic][Oic]R-OH) | 100 |
| N=C(N)NCCC[C@@H](N)C(=O)N[C@@H](CCCNC(=N)N)C(=O)NC/C=C/C(=O)N[C@@H](CO)C(=O)N1Cc2ccccc2C[C@@H]1C(=O)N1[C@H](C(=O)N[C@@H](CCCNC(=N)N)C(=O)O)C[C@@H]2CCCC[C@@H]21 (H-[dR]R[Butenoyl(2E,4-amino)]S[dTic][Oic]R-OH) | 229 |
| N=C(N)NCCC[C@@H](N)C(=O)N[C@@H](CCCNC(=N)N)C(=O)NCc1ccccc1/C=C/CC(=O)N[C@@H](CO)C(=O)N1Cc2ccccc2C[C@@H]1C(=O)N1[C@H](C(=O)N[C@@H](CCCNC(=N)N)C(=O)O)C[C@@H]2CCCC[C@@H]21 (H-[dR]R[X1]S[dTic][Oic]R-OH) | 17 |
| N=C(N)NCCC[C@@H](N)C(=O)N[C@@H](CCCNC(=N)N)C(=O)NCc1ccccc1/C=C/C(=O)N(CC(=O)N[C@@H](CO)C(=O)N1Cc2ccccc2C[C@@H]1C(=O)N1[C@H](C(=O)N[C@@H](CCCNC(=N)N)C(=O)O)C[C@@H]2CCCC[C@@H]21)Cc1ccccc1 (H-[dR]R[X2][Nphe]S[dTic][Oic]R-OH) | 28 |
| N=C(N)NCCC[C@@H](N)C(=O)N[C@@H](CCCNC(=N)N)C(=O)N1CCC(n2c(=O)n(CC(=O)N[C@@H](CO)C(=O)N3Cc4ccccc4C[C@@H]3C(=O)N3[C@H](C(=O)N[C@@H](CCCNC(=N)N)C(=O)O)C[C@@H]4CCCC[C@@H]43)c3ccccc32)CC1 (H-[dR]R[X3]S[dTic][Oic]R-OH) | 58 |
| N=C(N)NCCC[C@@H](N)C(=O)N[C@@H](CCCNC(=N)N)C(=O)N1CCc2c(c3ccccc3n2CC(=O)N[C@@H](CO)C(=O)N2Cc3ccccc3C[C@@H]2C(=O)N2[C@H](C(=O)N[C@@H](CCCNC(=N)N)C(=O)O)C[C@@H]3CCCC[C@@H]32)C1 (H-[dR]R[X4]S[dTic][Oic]R-OH) | 78 |
| N=C(N)NCCC[C@@H](N)C(=O)N[C@@H](CCCNC(=N)N)C(=O)NCCc1ccccc1/C=C/C(=O)N[C@@H](CO)C(=O)N1Cc2ccccc2C[C@@H]1C(=O)N1[C@H](C(=O)N[C@@H](CCCNC(=N)N)C(=O)O)C[C@@H]2CCCC[C@@H]21 (H-[dR]R[X6]S[dTic][Oic]R-OH) | 23 |
| N=C(N)NCCC[C@@H](N)C(=O)N[C@@H](CCCNC(=N)N)C(=O)Nc1ccc2c3ccccc3c(=O)n(CC(=O)N[C@@H](CO)C(=O)N3Cc4ccccc4C[C@@H]3C(=O)N3[C@H](C(=O)N[C@@H](CCCNC(=N)N)C(=O)O)C[C@@H]4CCCC[C@@H]43)c2c1 (H-[dR]R[X7]S[dTic][Oic]R-OH) | 3.3 |
